biological target: T1, dopamine receptor (D2) wild type (D2Rs) (Homo sapiens, UniProt P14416); experiment: D2R competition binding with [3H]-spiperone on membranes of transfected CHO cells; conditions: D2Rs, competition with 180 pM [3H]-spiperone, mean ± SEM, n = 3
T1 construct: host or cells: CHO cells, transient PEI transfection; membranes prepared 48 h after transfection
Description: Chinese hamster ovary cells (CHO cells) were used for the binding experiments. About 24 h before transfection, CHO cells were plated on a 10 cm Petri dish at a density of 1.5 × 10^6 cells and cultivated in 10 mL DMEM/Ham’s F12 supplemented with 10% heat-inactivated fetal bovine serum (FBS).
For transfection, the desired amount of linear polyethyleneimine (PEI) 25_K (Polysciences, Eppelheim, Germany) and DNA (dopamine receptor (D2) wild type, cDNA resource centre, Bloomsberg, PA, USA) were diluted separately in phosphate buffer saline (PBS). After 20 min, DNA was added to PEI solution, mixed and left for an additional 30 min. Final concentration of reactants was 6 µg plasmid DNA and 18 µg PEI per ml. PEI/DNA complex was added (1 mL/dish) and the plates were incubated for another 24 h. Then, the medium was replaced with fresh DMEM/Ham’s F12 with 10% FBS and incubated for an additional 24 h. Cells were maintained at 37 °C in a 5% CO2-humidified atmosphere.
About 48 h after transfection, cells were washed with PBS, mechanically detached from the dish with a plastic scraper in the ice-cold PBS, and centrifuged for 3 min at 250× g. Pellet was suspended in the ice-cold homogenization medium (100 mM NaCl, 20 mM Na-HEPES, 10 mM EDTA, pH 7.4) and homogenized on ice by two 30-s strokes using Polytron homogenizer (Ultra-Turrax; Janke & Kunkel GmbH & Co. KG, IKA-Labortechnik, Staufen, Germany) with a 30-s pause between strokes. Cell homogenates were centrifuged for 5 min at 1000× g. The supernatant was collected and centrifuged for 30 min at 30,000× g. Pellets were suspended in incubation medium (100 mM NaCl, 20 mM Na-HEPES, 10 mM MgCl2, pH 7.4), left for 30 min at 4 °C and centrifuged again for 30 min at 30,000× g. The membrane pellets were kept at −80 °C until use.
All radioligand binding experiments were optimized and carried out as described by El-Fakahany and Jakubik. […] Saturation experiments were performed in 800 μL volume containing: 400 μL of the membrane suspension and 400 μL of the radioligand in six increasing concentrations (ranging from 31 to 1000 pM).
The examined compounds were diluted in incubation buffer and tested in six concentrations (ranging from 0.1 nM–1 mM). The reactions were performed in 400 µL volume containing: 100 µL of the radioligand, 100 µL of tested substances dilution, and 200 µL of the membranes.
Nonspecific binding was determined in the presence of 10 μM unlabeled sulpiride. Membrane suspensions from both saturation and binding experiments (approximately 10 μg of membrane proteins per sample) were incubated in 96-well plates for 1 h at 25 °C in the incubation medium (100 mM NaCl, 20 mM Na-HEPES,10 mM MgCl2, pH = 7.4) in a shaking incubator (25 °C; PST-60HL, Biosan, Riga, Latvia).
The binding reactions were terminated by filtration of the membranes through APFC filter plate (Millipore, Prague, Czech Republic) pre-soaked with 0.5% PEI and washed with ice-cold distilled water using a Brandel cell harvester (Brandel, Gaithersburg, MD, USA). Then, filters with labelled membranes were dried. After 24 h, scintillation cocktail (Rotiszint eco plus, Carl Roth) was added to each sample and radioactivity was quantified by liquid scintillation spectrometry using Wallac Microbeta scintillation counter (Wallac, Turku, Finland). Competition binding experiments were performed per triplicate and all experiments were performed three times. Protein concentration was determined by the Lowry method in the Peterson modification.

T1 sequence (P14416 whole entry): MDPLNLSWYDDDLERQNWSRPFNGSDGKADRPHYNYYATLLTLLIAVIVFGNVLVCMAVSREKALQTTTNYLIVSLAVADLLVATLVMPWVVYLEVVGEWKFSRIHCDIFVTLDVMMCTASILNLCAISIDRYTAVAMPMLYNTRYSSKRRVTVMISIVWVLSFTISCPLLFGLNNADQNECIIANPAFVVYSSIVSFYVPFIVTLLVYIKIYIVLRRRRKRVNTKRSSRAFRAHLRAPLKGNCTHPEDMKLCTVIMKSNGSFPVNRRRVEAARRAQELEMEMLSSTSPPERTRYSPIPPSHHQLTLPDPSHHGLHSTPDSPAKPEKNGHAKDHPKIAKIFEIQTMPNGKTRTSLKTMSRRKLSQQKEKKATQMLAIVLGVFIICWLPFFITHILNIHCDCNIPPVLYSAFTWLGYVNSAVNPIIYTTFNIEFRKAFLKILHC

Row | Ki [µM] | SMILES
1 | 24 ± 5.8 | O=C1CCc2ccccc2N1CCCN1CCCC1 [5a, 1-(3-(Pyrrolidin-1-yl)propyl)-3,4-dihydroquinolin-2(1H)-one]
2 | 9.7 ± 1.6 | O=C1CCc2ccccc2N1CCCN1CCCCC1 [5b, 1-(3-(Piperidin-1-yl)propyl)-3,4-dihydroquinolin-2(1H)-one]
3 | 12 ± 3.2 | CN1CCN(CCCN2C(=O)CCc3ccccc32)CC1 [5c, 1-(3-(4-Methylpiperazin-1-yl)propyl)-3,4-dihydroquinolin-2(1H)-one]
4 | 20 ± 1.6 | O=C1CCc2ccccc2N1CCCN1CCOCC1 [5d, 1-(3-Morpholinopropyl)-3,4-dihydroquinolin-2(1H)-one]
5 | 7.6 ± 1.9 | O=C1CCc2ccccc2N1CCCN1CCSCC1 [5e, 1-(3-Thiomorpholinopropyl)-3,4-dihydroquinolin-2(1H)-one]
6 | 37 ± 8.6 | CCN(CC)CCCN1C(=O)CCc2ccccc21 [5f, 1-(3-(Diethylamino)propyl)-3,4-dihydroquinolin-2(1H)-one]
7 | 26 ± 6.1 | COCCN(C)CCCN1C(=O)CCc2ccccc21 [5g, 1-(3-((2-Methoxyethyl)(methyl)amino)propyl)-3,4-dihydroquinolin-2(1H)-one]
8 | 23 ± 3.6 | O=C1CCc2ccccc2N1CCCCN1CCCC1 [6a, 1-(4-(Pyrrolidin-1-yl)butyl)-3,4-dihydroquinolin-2(1H)-one]
9 | 14 ± 2.5 | O=C1CCc2ccccc2N1CCCCN1CCCCC1 [6b, 1-(4-(Piperidin-1-yl)butyl)-3,4-dihydroquinolin-2(1H)-one]

same assay, conditions: Table S1, D2Rs, mean ± S.E.M. of 3 independent experiments in triplicate; read-out: IC50 in µM ± SEM

Row | IC50 [µM] | SMILES
10 | 98 ± 23 | O=C1CCc2ccccc2N1CCCN1CCCC1 [5a, 1-(3-(Pyrrolidin-1-yl)propyl)-3,4-dihydroquinolin-2(1H)-one]
11 | 39 ± 6.4 | O=C1CCc2ccccc2N1CCCN1CCCCC1 [5b, 1-(3-(Piperidin-1-yl)propyl)-3,4-dihydroquinolin-2(1H)-one]
12 | 49 ± 13 | CN1CCN(CCCN2C(=O)CCc3ccccc32)CC1 [5c, 1-(3-(4-Methylpiperazin-1-yl)propyl)-3,4-dihydroquinolin-2(1H)-one]
13 | 80 ± 6.3 | O=C1CCc2ccccc2N1CCCN1CCOCC1 [5d, 1-(3-Morpholinopropyl)-3,4-dihydroquinolin-2(1H)-one]
14 | 30 ± 7.7 | O=C1CCc2ccccc2N1CCCN1CCSCC1 [5e, 1-(3-Thiomorpholinopropyl)-3,4-dihydroquinolin-2(1H)-one]
15 | 150 ± 34 | CCN(CC)CCCN1C(=O)CCc2ccccc21 [5f, 1-(3-(Diethylamino)propyl)-3,4-dihydroquinolin-2(1H)-one]
16 | 106 ± 24 | COCCN(C)CCCN1C(=O)CCc2ccccc21 [5g, 1-(3-((2-Methoxyethyl)(methyl)amino)propyl)-3,4-dihydroquinolin-2(1H)-one]
17 | 93 ± 14 | O=C1CCc2ccccc2N1CCCCN1CCCC1 [6a, 1-(4-(Pyrrolidin-1-yl)butyl)-3,4-dihydroquinolin-2(1H)-one]
18 | 57 ± 10 | O=C1CCc2ccccc2N1CCCCN1CCCCC1 [6b, 1-(4-(Piperidin-1-yl)butyl)-3,4-dihydroquinolin-2(1H)-one]

system: CHO-K1 cells; experiment: MTT assay on CHO-K1 cells; assay type: cell-based, Chinese hamster; conditions: Cricetulus griseus, cell viability, 24 h exposure, mean ± SEM, n = 3
Description: Standard MTT (3-[4,5-dimethylthiazol-2-yl]-2,5-diphenyltetrazolium bromide) assay (Sigma Aldrich, Prague, Czech Republic) was used according to the manufacturer´s protocol on the CHO-K1 (Chinese hamster ovary, ECACC, Salisbury, UK) in order to compare the effect of different compounds within the series. The cells were cultured according to ECACC recommended conditions and seeded in a density of 8000 per well as described previously. […] Cells were exposed to a tested compound for 24 h. Then the medium was replaced by a medium containing 10 μM of MTT and cells were allowed to produce formazan for another approximately 3 h under surveillance. Thereafter, medium with MTT was sucked out and crystals of formazan were dissolved in DMSO (100 µL). Cell viability was assessed spectrophotometrically by the amount of formazan produced. Absorbance was measured at 570 nm with 650 nm reference wavelength on Synergy HT (BioTek, Winooski, VT, USA). IC50 was then calculated from the control-subtracted triplicates using non-linear regression (four parameters) of GraphPad Prism 9 software. Final IC50 and SEM values were obtained as a mean of three independent measurements.

Row | SMILES | IC50 [mM]
19 | O=C1CCc2ccccc2N1CCCN1CCCC1 [5a, 1-(3-(Pyrrolidin-1-yl)propyl)-3,4-dihydroquinolin-2(1H)-one] | 2 ± 0.8
20 | O=C1CCc2ccccc2N1CCCN1CCCCC1 [5b, 1-(3-(Piperidin-1-yl)propyl)-3,4-dihydroquinolin-2(1H)-one] | 1.5 ± 0.3
21 | CN1CCN(CCCN2C(=O)CCc3ccccc32)CC1 [5c, 1-(3-(4-Methylpiperazin-1-yl)propyl)-3,4-dihydroquinolin-2(1H)-one] | 2 ± 1
22 | O=C1CCc2ccccc2N1CCCN1CCOCC1 [5d, 1-(3-Morpholinopropyl)-3,4-dihydroquinolin-2(1H)-one] | 1.1 ± 0.3
23 | O=C1CCc2ccccc2N1CCCN1CCSCC1 [5e, 1-(3-Thiomorpholinopropyl)-3,4-dihydroquinolin-2(1H)-one] | 0.5 ± 0.1
24 | CCN(CC)CCCN1C(=O)CCc2ccccc21 [5f, 1-(3-(Diethylamino)propyl)-3,4-dihydroquinolin-2(1H)-one] | 0.9 ± 0.2
25 | COCCN(C)CCCN1C(=O)CCc2ccccc21 [5g, 1-(3-((2-Methoxyethyl)(methyl)amino)propyl)-3,4-dihydroquinolin-2(1H)-one] | 1.5 ± 0.5
26 | O=C1CCc2ccccc2N1CCCCN1CCCC1 [6a, 1-(4-(Pyrrolidin-1-yl)butyl)-3,4-dihydroquinolin-2(1H)-one] | 1.1 ± 0.2
27 | O=C1CCc2ccccc2N1CCCCN1CCCCC1 [6b, 1-(4-(Piperidin-1-yl)butyl)-3,4-dihydroquinolin-2(1H)-one] | 0.8 ± 0.2

system: not listed separately; experiment: PAMPA assay (Polar Brain Lipid membrane); conditions: BBB permeability class predicted from PAMPA Pe
Description: In this study, it has been used as a non-cell-based in vitro assay carried out in a coated 96-well membrane filter. The filter membrane of the donor plate was coated with PBL (Polar Brain Lipid, Avanti, AL, USA) in dodecane (4 µL of 20 mg/mL PBL in dodecane) and the acceptor well was filled with 300 µL of PBS pH 7.4 buffer (VA tested compounds were dissolved first in the DMSO/phosphate-buffered saline mixture (maximum 0.5% v/v of DMSO) and subsequently diluted with phosphate-buffered saline (pH 7.4) to final concentrations of 40–100 μM in the donor wells). […] About 300 µL of the donor solution was added to the donor wells (VD) and the donor filter plate was carefully put on the acceptor plate so that coated membrane was “in touch” with both donor solution and acceptor buffer. Test compound diffused from the donor well through the lipid membrane (Area = 0.28 cm^2) to the acceptor well. The concentration of the drug in both donor and the acceptor wells were assessed after 3, 4, 5, and 6 h of incubation in quadruplicate using the UV plate reader Synergy HT (Biotek, Winooski, VT, USA) at the maximum absorption wavelength of each compound. Besides that, solution of theoretical compound concentration, simulating the equilibrium state established if the membrane were ideally permeable was prepared and assessed as well. Concentration of the compounds in the donor and acceptor well and equilibrium concentration were calculated from the standard curve and expressed as the permeability (Pe) according to the equation:(4) Pe=C×ln(1−[drug] acceptor/[drug] equilibrium) where C=(VD×VA)/(VD×VA) Area×Time

Row | SMILES | CNS (+/−)
28 | O=C1CCc2ccccc2N1CCCN1CCCC1 [5a, 1-(3-(Pyrrolidin-1-yl)propyl)-3,4-dihydroquinolin-2(1H)-one] | CNS + (CNS + (high BBB permeability predicted), Pe (10^−6 cm∙s^−1) > 4.0)
29 | O=C1CCc2ccccc2N1CCCN1CCCCC1 [5b, 1-(3-(Piperidin-1-yl)propyl)-3,4-dihydroquinolin-2(1H)-one] | CNS + (CNS + (high BBB permeability predicted), Pe (10^−6 cm∙s^−1) > 4.0)
30 | CN1CCN(CCCN2C(=O)CCc3ccccc32)CC1 [5c, 1-(3-(4-Methylpiperazin-1-yl)propyl)-3,4-dihydroquinolin-2(1H)-one] | CNS + (CNS + (high BBB permeability predicted), Pe (10^−6 cm∙s^−1) > 4.0)
31 | O=C1CCc2ccccc2N1CCCN1CCOCC1 [5d, 1-(3-Morpholinopropyl)-3,4-dihydroquinolin-2(1H)-one] | CNS + (CNS + (high BBB permeability predicted), Pe (10^−6 cm∙s^−1) > 4.0)
32 | O=C1CCc2ccccc2N1CCCN1CCSCC1 [5e, 1-(3-Thiomorpholinopropyl)-3,4-dihydroquinolin-2(1H)-one] | CNS + (CNS + (high BBB permeability predicted), Pe (10^−6 cm∙s^−1) > 4.0)
33 | CCN(CC)CCCN1C(=O)CCc2ccccc21 [5f, 1-(3-(Diethylamino)propyl)-3,4-dihydroquinolin-2(1H)-one] | CNS + (CNS + (high BBB permeability predicted), Pe (10^−6 cm∙s^−1) > 4.0)
34 | COCCN(C)CCCN1C(=O)CCc2ccccc21 [5g, 1-(3-((2-Methoxyethyl)(methyl)amino)propyl)-3,4-dihydroquinolin-2(1H)-one] | CNS + (CNS + (high BBB permeability predicted), Pe (10^−6 cm∙s^−1) > 4.0)
35 | O=C1CCc2ccccc2N1CCCCN1CCCC1 [6a, 1-(4-(Pyrrolidin-1-yl)butyl)-3,4-dihydroquinolin-2(1H)-one] | CNS + (CNS + (high BBB permeability predicted), Pe (10^−6 cm∙s^−1) > 4.0)
36 | O=C1CCc2ccccc2N1CCCCN1CCCCC1 [6b, 1-(4-(Piperidin-1-yl)butyl)-3,4-dihydroquinolin-2(1H)-one] | CNS + (CNS + (high BBB permeability predicted), Pe (10^−6 cm∙s^−1) > 4.0)

same assay, conditions: PAMPA, pH 7.4

Row | Papp [×10⁻⁶ cm/s] | SMILES
37 | 7.3 ± 0.8 | O=C1CCc2ccccc2N1CCCN1CCCC1 [5a, 1-(3-(Pyrrolidin-1-yl)propyl)-3,4-dihydroquinolin-2(1H)-one]
38 | 13 ± 0.1 | O=C1CCc2ccccc2N1CCCN1CCCCC1 [5b, 1-(3-(Piperidin-1-yl)propyl)-3,4-dihydroquinolin-2(1H)-one]
39 | 7 ± 0.4 | CN1CCN(CCCN2C(=O)CCc3ccccc32)CC1 [5c, 1-(3-(4-Methylpiperazin-1-yl)propyl)-3,4-dihydroquinolin-2(1H)-one]
40 | 12 ± 2 | O=C1CCc2ccccc2N1CCCN1CCOCC1 [5d, 1-(3-Morpholinopropyl)-3,4-dihydroquinolin-2(1H)-one]
41 | 24 ± 2.1 | O=C1CCc2ccccc2N1CCCN1CCSCC1 [5e, 1-(3-Thiomorpholinopropyl)-3,4-dihydroquinolin-2(1H)-one]
42 | 9.4 ± 0.4 | CCN(CC)CCCN1C(=O)CCc2ccccc21 [5f, 1-(3-(Diethylamino)propyl)-3,4-dihydroquinolin-2(1H)-one]
43 | 10 ± 1.6 | COCCN(C)CCCN1C(=O)CCc2ccccc21 [5g, 1-(3-((2-Methoxyethyl)(methyl)amino)propyl)-3,4-dihydroquinolin-2(1H)-one]
44 | 7.7 ± 1.8 | O=C1CCc2ccccc2N1CCCCN1CCCC1 [6a, 1-(4-(Pyrrolidin-1-yl)butyl)-3,4-dihydroquinolin-2(1H)-one]
45 | 10 ± 1.4 | O=C1CCc2ccccc2N1CCCCN1CCCCC1 [6b, 1-(4-(Piperidin-1-yl)butyl)-3,4-dihydroquinolin-2(1H)-one]
